Experimental data as given in patent publication US20190233884A1 (University of Southern California, priority 2016, published 2019).

Test system: patients with refractory metastatic colorectal cancer (mCRC)
Test: PFS, OS and disease control in the testing (validation) cohort of refractory mCRC patients receiving TAS-102 (n=129, Italy), by baseline characteristics, SNP genotype and toxicity
Type: in vivo, human
Details: testing cohort
Procedure: All patients underwent the treatment in salvage-line setting. […]
Genomic DNA was extracted from peripheral whole blood in patients of all cohorts using the QIAmp Kit (Qiagen, Valencia, Calif., USA) according to the manufacturer's protocol (www.qiagen.com). The candidate SNPs were genotyped using PCR-based direct DNA sequence analysis by ABI 3100A Capillary Genetic Analyzer and Sequencing Scanner v1.0 (Applied Biosystems). Amplification of extracted DNA was carried out using both forward and reverse primers for each gene polymorphism as shown in Table 1. […] The investigators analyzing SNPs were blinded to the clinical data of the study patients.
The primary endpoint in this study was progression-free survival (PFS), and the secondary endpoints were overall survival (OS) and disease control rate (DCR). PFS was calculated from the date of starting treatment to the first observation of disease progression or death from any cause. If a patient had no disease progression or death, PFS was censored at the date of last follow up. OS was calculated from the date of starting treatment until the date of death from any cause or the date of the last follow-up, at which point OS was censored. The disease control rate (DCR) was defined as the proportion of patients who achieved a stable disease (SD) or […] according to RECISTv1.1. Chi-square test was used to examine the difference in baseline patient characteristics among the three cohorts. Allelic distribution of all SNPs by ethnicity for deviation from Hardy-Weinberg equilibrium and the allelic frequencies of SNPs were tested using the Chi-square tests with one degree of freedom. The associations between candidate SNPs and disease control, and toxicities were examined using contingency tables and Fisher's exact test. The associations of SNPs with PFS and OS were analysed using Kaplan-Meier curves and the log-rank test. Because the true mode of inheritance of candidate SNPs was not established yet, a codominant or dominant genetic model if appropriate was considered.
All patients underwent the treatment in salvage-line setting. […] In all patients, adverse events were graded according to the Common Terminology Criteria for Adverse Events, version 4.0. […]
Genomic DNA was extracted from peripheral whole blood in patients of all cohorts using the QIAmp Kit (Qiagen, Valencia, Calif., USA) according to the manufacturer's protocol (www.qiagen.com). The candidate SNPs were tested using PCR-based direct DNA sequence analysis by ABI 3100A Capillary Genetic Analyzer and Sequencing Scanner v1.0 (Applied Biosystems). […] The investigators analyzing SNPs were blinded to the clinical data.
The primary endpoint in this study was progression-free survival (PFS), and the secondary endpoints were overall survival (OS) and disease control rate (DCR).

[1] = hENT1 rs760370, multivariable adjusted for age group, liver metastasis, ECOG, previous anti-EGFR
[2] = hENT1 rs760370 any G vs A/A, univariate

Trifluridine/tipiracil [TAS-102] was tested, and the “Disease Control Rate SD” value (hENT1 rs750370 A/A) was 9 (20%), the “Overall Survival Median, months (95% CI)” value (hENT1 rs750370 A/A) was 3.9 (3.3, 5.5) months and the “Progression-free Survival Median, months (95% CI)” value (hENT1 rs750370 A/A) was 1.9 (1.7, 2.0) months. For the same substance, the “Disease Control Rate PD” value (hENT1 rs750370 A/G) was 42 (66%), the “Disease Control Rate SD” value (hENT1 rs750370 A/G) was 22 (34%) and the “Progression-free Survival Median, months (95% CI)” value (hENT1 rs750370 A/G) was 2.1 (1.9, 2.5) months. For the same substance, the “Overall Survival HR (95% CI) multivariate” value (hENT1 rs750370 A/G vs A/A) was 0.50 (0.28, 0.89), the “Overall Survival HR (95% CI) univariate” value (hENT1 rs750370 A/G vs A/A) was 0.48 (0.27, 0.85) and the “Progression-free Survival HR (95% CI) multivariate” value (hENT1 rs750370 A/G vs A/A) was 0.58 (0.37, 0.89). For the same substance, the “Progression-free Survival HR (95% CI) univariate” value (hENT1 rs750370 A/G vs A/A) was 0.59 (0.38, 0.90), the “Disease Control Rate PD” value (hENT1 rs750370 Any G) was 55 (66%) and the “Disease Control Rate SD” value (hENT1 rs750370 Any G) was 28 (34%). The “Overall Survival Median, months (95% CI)” value (hENT1 rs750370 Any G) was 9.0 (5.1, 9.0+) months, the “Progression-free Survival Median, months (95% CI)” value (hENT1 rs750370 Any G) was 2.1 (1.9, 2.4) months and the “Overall Survival HR (95% CI) multivariate” value (hENT1 rs750370 Any G vs A/A) was 0.54 (0.31, 0.93). The “Overall Survival HR (95% CI) univariate” value (hENT1 rs750370 Any G vs A/A) was 0.50 (0.29, 0.86), the “Progression-free Survival HR (95% CI) multivariate” value (hENT1 rs750370 Any G vs A/A) was 0.65 (0.43, 0.98) and the “Progression-free Survival HR (95% CI) univariate” value (hENT1 rs750370 Any G vs A/A) was 0.64 (0.43, 0.95). The “Disease Control Rate PD” value (hENT1 rs750370 G/G) was 13 (68%), the “Disease Control Rate SD” value (hENT1 rs750370 G/G) was 6 (32%) and the “Overall Survival Median, months (95% CI)” value (hENT1 rs750370 G/G) was 9.0 (2.9, 9.0+) months. For the same substance, the “Progression-free Survival Median, months (95% CI)” value (hENT1 rs750370 G/G) was 2.0 (1.6, 2.5) months, the “Overall Survival HR (95% CI) multivariate” value (hENT1 rs750370 G/G vs A/A) was 0.78 (0.31, 1.99) and the “Overall Survival HR (95% CI) univariate” value (hENT1 rs750370 G/G vs A/A) was 0.58 (0.24, 1.41). For the same substance, the “Progression-free Survival HR (95% CI) multivariate” value (hENT1 rs750370 G/G vs A/A) was 1.00 (0.55, 1.80), the “Progression-free Survival HR (95% CI) univariate” value (hENT1 rs750370 G/G vs A/A) was 0.86 (0.48, 1.55) and the “HR for OS” value [1] was 0.54. The “HR for PFS” value [1] was 0.65, the OS (hENT1 rs760370 A/A) was 3.9 months and the PFS (hENT1 rs760370 A/A) was 1.9 months. For the same substance, the OS (hENT1 rs760370 any G allele) was 9.0 months, the PFS (hENT1 rs760370 any G allele) was 2.1 months and the “HR for OS” value [2] was 0.50. For the same substance, the “HR for PFS” value [2] was 0.64, the “Disease Control Rate PD” value (hENT1 rs9394992 Any T) was 50 (71%) and the “Disease Control Rate SD” value (hENT1 rs9394992 Any T) was 20 (29%). The “Overall Survival Median, months (95% CI)” value (hENT1 rs9394992 Any T) was 5.2 (3.7, 9.0+) months, the “Progression-free Survival Median, months (95% CI)” value (hENT1 rs9394992 Any T) was 2.0 (1.9, 2.4) months and the “Overall Survival HR (95% CI) multivariate” value (hENT1 rs9394992 Any T vs C/C) was 1.19 (0.69, 2.07). The “Overall Survival HR (95% CI) univariate” value (hENT1 rs9394992 Any T vs C/C) was 1.31 (0.76, 2.27), the “Progression-free Survival HR (95% CI) multivariate” value (hENT1 rs9394992 Any T vs C/C) was 0.81 (0.54, 1.19) and the “Progression-free Survival HR (95% CI) univariate” value (hENT1 rs9394992 Any T vs C/C) was 0.92 (0.62, 1.35). For the same substance, the “Disease Control Rate PD” value (hENT1 rs9394992 C/C) was 41 (71%), the “Disease Control Rate SD” value (hENT1 rs9394992 C/C) was 17 (29%) and the “Overall Survival Median, months (95% CI)” value (hENT1 rs9394992 C/C) was 5.8 (4.7, 8.8+) months. The “Progression-free Survival Median, months (95% CI)” value (hENT1 rs9394992 C/C) was 2.0 (1.9, 2.1) months, the “Disease Control Rate PD” value (hENT1 rs9394992 C/T) was 41 (71%) and the “Disease Control Rate SD” value (hENT1 rs9394992 C/T) was 17 (29%). For the same substance, the “Overall Survival Median, months (95% CI)” value (hENT1 rs9394992 C/T) was 4.4 (3.6, 9.0+) months, the “Progression-free Survival Median, months (95% CI)” value (hENT1 rs9394992 C/T) was 2.0 (1.8, 2.3) months and the “Overall Survival HR (95% CI) multivariate” value (hENT1 rs9394992 C/T vs C/C) was 1.23 (0.69, 2.18). For the same substance, the “Overall Survival HR (95% CI) univariate” value (hENT1 rs9394992 C/T vs C/C) was 1.38 (0.78, 2.43) and the “Progression-free Survival HR (95% CI) multivariate” value (hENT1 rs9394992 C/T vs C/C) was 0.81 (0.54, 1.22).
